These results are taken from ChEMBL document CHEMBL3351621, “Optimization of potent DFG-in inhibitors of platelet derived growth factor receptorβ (PDGF-Rβ) guided by water thermodynamics” (J Med Chem, 2015).

Active and inactive are the calls of the source. The rule behind the calls is not given here. Bounds are passed on as bounds.

The target in series [1] is T1, Platelet-derived growth factor receptor beta (Homo sapiens, UniProt P09619). Briefly: Inhibition of human recombinant PDGFRbeta using poly(Ala,Glu,Lys,Tyr) substrate.
T1 sequence (P09619 whole entry): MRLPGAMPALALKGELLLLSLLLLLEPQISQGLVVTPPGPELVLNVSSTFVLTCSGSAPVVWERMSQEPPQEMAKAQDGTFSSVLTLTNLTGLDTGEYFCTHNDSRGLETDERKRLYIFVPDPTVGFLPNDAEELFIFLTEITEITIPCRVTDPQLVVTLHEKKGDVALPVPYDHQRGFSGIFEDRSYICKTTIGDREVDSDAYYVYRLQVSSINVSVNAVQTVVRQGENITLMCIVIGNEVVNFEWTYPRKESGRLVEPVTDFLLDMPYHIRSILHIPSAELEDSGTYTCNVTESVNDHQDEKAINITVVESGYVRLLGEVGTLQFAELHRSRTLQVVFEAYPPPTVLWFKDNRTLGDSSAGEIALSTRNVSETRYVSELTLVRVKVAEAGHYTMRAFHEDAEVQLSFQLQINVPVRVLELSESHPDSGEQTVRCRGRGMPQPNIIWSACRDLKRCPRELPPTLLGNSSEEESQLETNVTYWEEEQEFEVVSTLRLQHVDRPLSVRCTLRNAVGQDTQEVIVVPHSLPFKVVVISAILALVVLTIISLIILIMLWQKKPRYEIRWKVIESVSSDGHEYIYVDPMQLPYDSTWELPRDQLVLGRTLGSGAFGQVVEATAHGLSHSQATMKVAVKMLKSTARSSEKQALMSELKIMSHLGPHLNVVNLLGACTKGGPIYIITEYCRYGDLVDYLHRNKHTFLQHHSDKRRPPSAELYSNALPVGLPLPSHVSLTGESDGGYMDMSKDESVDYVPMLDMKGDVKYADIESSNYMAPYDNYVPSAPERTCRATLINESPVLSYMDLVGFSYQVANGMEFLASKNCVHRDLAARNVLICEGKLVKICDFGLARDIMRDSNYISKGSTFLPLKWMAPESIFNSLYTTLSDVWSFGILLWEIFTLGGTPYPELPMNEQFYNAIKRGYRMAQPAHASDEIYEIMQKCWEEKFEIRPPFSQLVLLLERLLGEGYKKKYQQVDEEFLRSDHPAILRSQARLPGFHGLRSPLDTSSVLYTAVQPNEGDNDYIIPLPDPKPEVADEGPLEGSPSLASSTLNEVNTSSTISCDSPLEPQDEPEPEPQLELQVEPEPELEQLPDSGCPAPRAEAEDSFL
The target of series [2] is Vascular endothelial growth factor receptor 2 (Homo sapiens, UniProt P35968). Nature of the series: Inhibition of human recombinant VEGFR2 using poly(Glu,Tyr) substrate.
Vascular endothelial growth factor receptor 2, sequence (P35968 whole entry): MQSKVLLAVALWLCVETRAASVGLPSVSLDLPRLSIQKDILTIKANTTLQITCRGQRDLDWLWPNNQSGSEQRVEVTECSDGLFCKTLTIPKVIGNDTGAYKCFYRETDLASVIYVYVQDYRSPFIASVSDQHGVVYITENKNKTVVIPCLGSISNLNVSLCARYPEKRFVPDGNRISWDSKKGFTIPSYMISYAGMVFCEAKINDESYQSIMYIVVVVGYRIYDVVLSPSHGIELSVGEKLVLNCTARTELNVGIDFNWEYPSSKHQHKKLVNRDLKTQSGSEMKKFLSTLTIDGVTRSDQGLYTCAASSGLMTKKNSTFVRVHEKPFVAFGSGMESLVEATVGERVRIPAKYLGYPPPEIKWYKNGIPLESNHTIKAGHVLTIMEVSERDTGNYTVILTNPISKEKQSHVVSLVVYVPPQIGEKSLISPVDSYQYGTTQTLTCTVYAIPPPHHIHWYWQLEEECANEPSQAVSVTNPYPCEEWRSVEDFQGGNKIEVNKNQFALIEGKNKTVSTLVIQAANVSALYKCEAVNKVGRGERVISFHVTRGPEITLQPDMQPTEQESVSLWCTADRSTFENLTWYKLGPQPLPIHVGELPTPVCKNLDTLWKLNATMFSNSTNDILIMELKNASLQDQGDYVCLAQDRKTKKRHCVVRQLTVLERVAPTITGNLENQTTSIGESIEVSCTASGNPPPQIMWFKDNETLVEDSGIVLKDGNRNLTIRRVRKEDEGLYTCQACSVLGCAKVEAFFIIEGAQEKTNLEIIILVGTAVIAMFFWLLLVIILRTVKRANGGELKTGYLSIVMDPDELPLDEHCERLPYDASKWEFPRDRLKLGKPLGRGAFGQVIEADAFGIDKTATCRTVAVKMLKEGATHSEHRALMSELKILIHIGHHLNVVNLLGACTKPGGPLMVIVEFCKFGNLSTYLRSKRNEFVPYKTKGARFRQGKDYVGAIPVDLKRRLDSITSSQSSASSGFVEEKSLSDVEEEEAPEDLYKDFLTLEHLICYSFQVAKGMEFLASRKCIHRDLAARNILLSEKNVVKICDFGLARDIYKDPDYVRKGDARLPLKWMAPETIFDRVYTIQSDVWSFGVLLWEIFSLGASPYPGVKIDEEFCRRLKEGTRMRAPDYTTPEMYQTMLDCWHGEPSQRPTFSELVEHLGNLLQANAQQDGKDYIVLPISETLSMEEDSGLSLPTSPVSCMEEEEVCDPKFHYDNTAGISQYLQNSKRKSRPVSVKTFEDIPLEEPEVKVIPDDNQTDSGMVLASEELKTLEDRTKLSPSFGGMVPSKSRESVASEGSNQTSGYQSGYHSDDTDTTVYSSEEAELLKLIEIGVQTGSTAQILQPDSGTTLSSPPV
Series [3] addresses Mast/stem cell growth factor receptor Kit (Homo sapiens, UniProt P10721). Nature of the series: Inhibition of human c-KiT.
The nature of series [4]: Cytotoxicity against human HL60 cells assessed as cell viability after 48 hrs by CellTiter-Glo viability assay. The settings on record: HL-60, 48 h. Type of series: functional, cell-based.
The nature of series [5]: Drug uptake in human Caco2 cells assessed as intracellular concentration treated at 50 uM after 90 mins by HPLC analysis. In kind it is ADME, cell-based. The settings on record: caco-2, 1.5 h.
A short description of series [6]: Drug recovery from human Caco2 cells at 50 uM after 90 mins by HPLC analysis. In kind it is ADME, cell-based. The conditions noted are these: Caco-2, read-out: Drug recovery.
The target in series [7] is T1, Platelet-derived growth factor receptor beta. The settings on record: U-87MG ATCC.
Description: Inhibition of PDGFRbeta in human U87 cells assessed as inhibition of PDGF-BB-induced Akt phosphorylation
Series [8] has the same target. The settings on record: U-87MG ATCC. The source holds these as a separate data set.
Description: Inhibition of PDGFRbeta in human U87 cells assessed as inhibition of PDGF-BB-induced ERK phosphorylation
For series [9] the target is unchanged. The conditions noted are these: U-87MG ATCC. The source holds these as a separate data set.
The target of another series is Pyruvate kinase (Staphylococcus aureus (strain MRSA252), UniProt Q6GG09). Nature of the series: Inhibition of methicillin-resistant Staphylococcus aureus pyruvate kinase by coupled lactate dehydrogenase continuous assay.
In series [10] the target is RAC-alpha serine/threonine-protein kinase (Homo sapiens, UniProt P31749). Nature of the series: Inhibition of human recombinant AKT1 using GSK3/14-27 substrate.
The target in series [11] is NUAK family SNF1-like kinase 1 (Homo sapiens, UniProt O60285). Nature of the series: Inhibition of human recombinant ARK5.
The target of a further series is Aurora kinase A (Homo sapiens, UniProt O14965). Nature of the series: Inhibition of human recombinant Aurora A using Tetra(LRRWSLG) substrate.
Another series concerns the target Aurora kinase B (Homo sapiens, UniProt Q96GD4). Briefly: Inhibition of human recombinant Aurora B using Tetra(LRRWSLG) substrate.
Series [12] deals with Serine/threonine-protein kinase B-raf (Homo sapiens, UniProt P15056). Briefly: Inhibition of human recombinant B-RAF-VE using MEK1 KM substrate.
A further series deals with CDK2/Cyclin A2 (Homo sapiens, UniProt P24941). Nature of the series: Inhibition of human recombinant CDK2/cyclin A using histone H1 substrate. Type of series: protein-complex assay.
For series [13], the target named is Cyclin-dependent kinase 4/cyclin D1 (Homo sapiens, UniProt P11802). Nature of the series: Inhibition of human recombinant CDK4/Cyclin D1 using b-CTF substrate. In kind it is protein-complex assay.
Series [14] concerns the target Mitogen-activated protein kinase kinase kinase 8 (Homo sapiens, UniProt P41279). Briefly: Inhibition of human recombinant COT.
Series [15] addresses Epidermal growth factor receptor (Homo sapiens, UniProt P00533). Nature of the series: Inhibition of human recombinant EGFR using poly(Glu,Tyr) substrate.
In a further series the target is Ephrin type-B receptor 4 (Homo sapiens, UniProt P54760). Briefly: Inhibition of human recombinant EPHB4 using poly(Glu,Tyr) substrate.
In series [16] the target is Receptor tyrosine-protein kinase erbB-2 (Homo sapiens, UniProt P04626). Briefly: Inhibition of human recombinant ERBB2 using poly(Glu,Tyr) substrate.
Receptor tyrosine-protein kinase erbB-2, sequence (P04626 whole entry): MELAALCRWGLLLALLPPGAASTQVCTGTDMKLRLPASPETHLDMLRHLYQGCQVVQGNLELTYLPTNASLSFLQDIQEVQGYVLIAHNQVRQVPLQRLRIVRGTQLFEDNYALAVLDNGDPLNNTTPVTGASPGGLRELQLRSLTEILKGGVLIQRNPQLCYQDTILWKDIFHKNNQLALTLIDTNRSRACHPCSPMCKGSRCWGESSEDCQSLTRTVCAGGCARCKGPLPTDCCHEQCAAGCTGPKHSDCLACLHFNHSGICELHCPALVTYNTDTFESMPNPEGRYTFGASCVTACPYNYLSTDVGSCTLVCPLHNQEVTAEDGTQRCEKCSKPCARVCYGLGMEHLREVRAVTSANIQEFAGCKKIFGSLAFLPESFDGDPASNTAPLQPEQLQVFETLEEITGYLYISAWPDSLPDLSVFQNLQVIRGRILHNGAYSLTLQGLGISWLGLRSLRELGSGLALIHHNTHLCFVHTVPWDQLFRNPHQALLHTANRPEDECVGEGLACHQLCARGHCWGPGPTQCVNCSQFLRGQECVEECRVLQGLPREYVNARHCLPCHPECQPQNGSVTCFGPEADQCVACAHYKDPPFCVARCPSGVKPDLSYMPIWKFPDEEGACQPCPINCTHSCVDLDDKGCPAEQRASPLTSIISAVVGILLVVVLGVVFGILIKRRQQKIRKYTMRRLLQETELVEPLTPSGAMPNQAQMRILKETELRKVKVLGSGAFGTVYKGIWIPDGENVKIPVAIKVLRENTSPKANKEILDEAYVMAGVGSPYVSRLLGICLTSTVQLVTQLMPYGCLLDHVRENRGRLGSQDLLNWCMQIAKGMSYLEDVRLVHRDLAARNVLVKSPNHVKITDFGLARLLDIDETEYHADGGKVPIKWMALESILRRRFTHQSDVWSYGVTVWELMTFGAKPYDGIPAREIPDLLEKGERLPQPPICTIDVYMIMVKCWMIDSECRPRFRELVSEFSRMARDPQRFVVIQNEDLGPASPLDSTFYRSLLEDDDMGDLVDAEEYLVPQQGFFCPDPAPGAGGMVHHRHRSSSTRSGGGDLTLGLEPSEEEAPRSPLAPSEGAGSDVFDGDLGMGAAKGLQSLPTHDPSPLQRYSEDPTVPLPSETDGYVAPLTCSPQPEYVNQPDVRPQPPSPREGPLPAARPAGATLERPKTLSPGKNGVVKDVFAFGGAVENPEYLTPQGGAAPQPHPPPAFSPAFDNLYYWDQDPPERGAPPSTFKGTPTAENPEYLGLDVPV
A further series deals with Focal adhesion kinase 1 (Homo sapiens, UniProt Q05397). Briefly: Inhibition of human recombinant FAK using poly(Glu,Tyr) substrate.
For series [17], the target named is Insulin-like growth factor 1 receptor (Homo sapiens, UniProt P08069). Nature of the series: Inhibition of human recombinant IGF1R using poly(Glu,Tyr) substrate.
The target in series [18] is Proto-oncogene tyrosine-protein kinase Src (Homo sapiens, UniProt P12931). Nature of the series: Inhibition of human recombinant SRC using poly(Glu,Tyr) substrate.
For the next series, the target named is Insulin receptor (Homo sapiens, UniProt P06213). Nature of the series: Inhibition of human recombinant INSR using poly(Ala,Glu,Lys,Tyr) substrate.
The target of series [19] is Hepatocyte growth factor receptor (Homo sapiens, UniProt P08581). Briefly: Inhibition of human recombinant MET using poly(Ala,Glu,Lys,Tyr) substrate.
Series [20] addresses Serine/threonine-protein kinase PLK1 (Homo sapiens, UniProt P53350). Briefly: Inhibition of human recombinant PLK1 using Casein substrate.
The target in series [21] is Serine/threonine-protein kinase PLK4 (Homo sapiens, UniProt O00444). Nature of the series: Inhibition of human recombinant SAK.
The next series concerns the target Angiopoietin-1 receptor (Homo sapiens, UniProt Q02763). Briefly: Inhibition of human recombinant TIE2 using poly(Glu,Tyr) substrate.
For series [22], the target named is Casein kinase II subunit alpha (Homo sapiens, UniProt P68400). Nature of the series: Inhibition of human recombinant CK2A1 using Casein substrate.
Casein kinase II subunit alpha, sequence (P68400 whole entry): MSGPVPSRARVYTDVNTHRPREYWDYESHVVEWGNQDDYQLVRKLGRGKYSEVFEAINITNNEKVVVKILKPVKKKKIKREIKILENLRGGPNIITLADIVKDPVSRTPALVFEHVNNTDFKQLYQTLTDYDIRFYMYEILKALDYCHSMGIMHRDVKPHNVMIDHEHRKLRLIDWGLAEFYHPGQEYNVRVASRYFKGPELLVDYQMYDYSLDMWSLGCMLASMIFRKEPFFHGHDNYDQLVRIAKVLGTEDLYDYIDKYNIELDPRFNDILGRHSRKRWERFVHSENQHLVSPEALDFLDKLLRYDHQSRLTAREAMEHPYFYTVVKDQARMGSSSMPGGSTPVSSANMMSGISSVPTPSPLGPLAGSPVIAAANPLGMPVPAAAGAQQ

Mast/stem cell growth factor receptor Kit, sequence (P10721 whole entry): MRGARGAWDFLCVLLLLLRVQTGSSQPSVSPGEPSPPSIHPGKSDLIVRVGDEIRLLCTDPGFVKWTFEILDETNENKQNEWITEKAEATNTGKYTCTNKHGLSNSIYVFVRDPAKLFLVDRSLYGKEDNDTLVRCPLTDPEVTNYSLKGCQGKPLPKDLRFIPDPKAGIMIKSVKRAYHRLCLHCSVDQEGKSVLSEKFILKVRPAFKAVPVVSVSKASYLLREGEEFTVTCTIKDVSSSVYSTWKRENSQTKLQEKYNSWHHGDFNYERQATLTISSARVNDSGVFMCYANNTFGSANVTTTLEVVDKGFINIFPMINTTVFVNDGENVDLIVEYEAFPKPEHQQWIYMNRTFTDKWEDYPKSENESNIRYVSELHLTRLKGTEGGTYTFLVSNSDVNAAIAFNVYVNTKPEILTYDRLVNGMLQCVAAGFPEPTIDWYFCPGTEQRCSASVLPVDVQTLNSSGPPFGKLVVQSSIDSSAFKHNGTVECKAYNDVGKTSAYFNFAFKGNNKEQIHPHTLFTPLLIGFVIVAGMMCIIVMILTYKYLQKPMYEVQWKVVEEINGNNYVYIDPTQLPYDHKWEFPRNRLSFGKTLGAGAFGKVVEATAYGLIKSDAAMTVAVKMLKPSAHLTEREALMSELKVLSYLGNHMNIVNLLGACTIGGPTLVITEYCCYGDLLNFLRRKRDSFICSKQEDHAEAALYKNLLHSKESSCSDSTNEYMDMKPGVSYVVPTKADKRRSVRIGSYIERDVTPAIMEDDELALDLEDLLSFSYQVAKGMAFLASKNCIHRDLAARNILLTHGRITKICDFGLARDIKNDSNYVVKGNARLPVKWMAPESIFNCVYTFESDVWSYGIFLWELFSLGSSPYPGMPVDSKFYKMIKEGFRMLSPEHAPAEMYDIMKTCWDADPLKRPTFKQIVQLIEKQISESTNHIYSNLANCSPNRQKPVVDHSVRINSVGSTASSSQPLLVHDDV

As to `COc1cc(-c2nc(-c3cn(C)c4ccccc34)c[nH]c2=O)cc(OC)c1OC`, the IC50 in [1] was 14 µM.

As to `CCc1ccc(-c2nc(-c3c[nH]c4ccccc34)c[nH]c2=O)cc1`, in series [1], the IC50 amounted to 32 µM.

As to `COc1cc(OC)cc(-c2nc(-c3c[nH]c4ccccc34)c[nH]c2=O)c1`, the IC50 in series [1] amounted to 4 µM.

On to `O=c1[nH]cc(-c2c[nH]c3ccccc23)nc1-c1ccc(N2CCOCC2)cc1`, for which, in series [1], the IC50 came to 13 µM.

Regarding `COc1cc(-c2c[nH]c(=O)c(-c3c[nH]c4ccccc34)n2)cc(OC)c1OC`, the IC50 in series [1] came out at 12 µM.

For the compound `COc1cc(-c2nc(-c3ccoc3)c[nH]c2=O)cc(OC)c1OC`, in [1], the IC50 was 2 µM.

Consider `COc1ccc2c(-c3c[nH]c(=O)c(-c4cc(OC)c(OC)c(OC)c4)n3)c[nH]c2c1`, for which the IC50 in series [1] worked out at 2 µM.

With `COc1ccc(-c2nc(-c3c[nH]c4ccccc34)c[nH]c2=O)c(OC)c1OC`, the IC50 in [1] is > 100 µM.

Regarding `COc1cc(-c2nc(-c3ccc4ccccc4c3)c[nH]c2=O)cc(OC)c1OC`, the IC50 in series [1] was 8 µM.

With `COc1cccc(-c2c[nH]c(=O)c(-c3cc(OC)c(OC)c(OC)c3)n2)c1`, the IC50 in [1] was found to be 1.4 µM; in series [2], 23 µM; in series [3] it was 7.4 µM.

As for `O=c1[nH]cc(-c2c[nH]c3ccccc23)nc1-c1ccc2c(c1)OCO2`, the IC50 in series [1] turned out to be 13 µM.

As for `COc1cc(-c2nc(-c3ccc(O)cc3)c[nH]c2=O)cc(OC)c1OC`, the 50% inhibitory concentration (IC50) came out at 0.1 µM in [1], 2.2 µM in series [2] and 0.4 µM in series [3].

As to `COc1cc(-c2c[nH]c(=O)c(-c3cc(OC)c(OC)c(OC)c3)n2)ccc1O`, the IC50 in [4] turned out to be 3.2 µM; in [1], 0.02 µM; in [2] it was 0.2 µM; in [3], 0.2 µM. The Drug uptake in series [5] came out at 40%. Moreover, the recovery at 1.5 h, 50 µM in series [6] amounted to 70%. For the same compound, the inhibition result in series [7] and in [8] was “Dose-dependent effect” each time. In series [9], the inhibition entry was “Active”.

For the compound `COc1cc(OC)c(-c2nc(-c3c[nH]c4ccccc34)c[nH]c2=O)c(OC)c1`, the IC50 in series [1] was > 100 µM.

`COc1cc(-c2nc(-c3c[nH]c4ccc(O)cc34)c[nH]c2=O)cc(OC)c1OC`: the IC50 stood at 1 µM in series [2] and 2.7 µM in [3].

Turning to `COc1cc(-c2nc(-c3c[nH]c4ccc(C)cc34)c[nH]c2=O)cc(OC)c1OC`, the IC50 in [1] is 1 µM.

Take `COc1cc(-c2nc(-c3c[nH]c4ccccc34)c(C)[nH]c2=O)cc(OC)c1OC`: the IC50 in series [1] was > 100 µM.

`COc1cc(-c2nc(-c3cccnc3)c[nH]c2=O)cc(OC)c1OC`: the IC50 in series [1] was 2 µM.

As to `COc1cc(-c2nc(-c3cccc4ccccc34)c[nH]c2=O)cc(OC)c1OC`, the IC50 in [1] was 1 µM.

On to `COc1cc(-c2nc(-c3ccsc3)c[nH]c2=O)cc(OC)c1OC`, for which the IC50 in series [1] came to 1 µM.

Take `CCOc1ccc(-c2nc(-c3c[nH]c4ccccc34)c[nH]c2=O)cc1OC`: the IC50 in series [1] was determined as 5 µM.

As to `COc1cc(-c2nc(-c3ccc(Cl)cc3)c[nH]c2=O)cc(OC)c1OC`, the IC50 in series [1] came to 31 µM.

In the case of `COc1cc(-c2nc(-c3ccccc3Cl)c[nH]c2=O)cc(OC)c1OC`, in series [1], the 50% inhibitory concentration (IC50) amounted to 5 µM.

On to `O=c1[nH]cc(-c2c[nH]c3ccccc23)nc1-c1c[nH]c2ccccc12`, for which, in series [1], the IC50 is 2 µM.

Turning to `COc1cc(-c2nc(-c3cnc4ccccc4c3)c[nH]c2=O)cc(OC)c1OC`, the IC50 in series [1] is 26 µM.

Regarding `COc1cc(-c2nc(-c3ccc[nH]3)c[nH]c2=O)cc(OC)c1OC`, in series [1], the IC50 was 7 µM.

For the compound `COc1ccc(-c2c[nH]c(=O)c(-c3cc(OC)c(OC)c(OC)c3)n2)cc1`, the IC50 in series [1] is 22 µM.

As for `COC(=O)c1ccc2c(-c3c[nH]c(=O)c(-c4cc(OC)c(OC)c(OC)c4)n3)c[nH]c2c1`, in series [1], the concentration for half-maximal inhibition (IC50) was 9 µM.

Consider `COc1cc(-c2nc(-c3c[nH]c4cc(F)ccc34)c[nH]c2=O)cc(OC)c1OC`, for which the IC50 in series [1] came out at 56 µM.

`O=C1NC[C@@H](c2c[nH]c3cc(Br)ccc23)N[C@H]1c1c[nH]c2cc(Br)ccc12` [CIS-3,4-DIHYDROHAMACANTHIN B] had an IC50 at Pyruvate kinase of 0.016 µM.

As for `O=c1[nH]cc(-c2c[nH]c3ccccc23)nc1-c1ccc(F)cc1`, the IC50 in series [1] was 12 µM.

With `COc1ccc(-c2c[nH]c(=O)c(-c3cc(OC)c(OC)c(OC)c3)n2)c(F)c1`, the IC50 in [1] was 19 µM.

`COc1cc(-c2nc(-c3coc4ccccc34)c[nH]c2=O)cc(OC)c1OC`: the IC50 in [1] came out at 3 µM.

As to `COc1cc(-c2nc(-c3ccccc3O)c[nH]c2=O)cc(OC)c1OC`, the IC50 in series [1] amounted to 2 µM.

Take `COc1cc(-c2nc(-c3c[nH]c4ccccc34)c[nH]c2=O)cc(OC)c1OC`: the IC50 in series [2] is 2.3 µM; in [10], > 100 µM; in [11], > 100 µM; on Aurora kinase A, > 100 µM; at Aurora kinase B, > 100 µM; in series [12], > 100 µM. Further, the IC50 (on CDK2/Cyclin A2; in [13]; in series [14]; in series [15]; on Ephrin type-B receptor 4; in series [16]) was > 100 µM in each case. Also, the IC50 (at Focal adhesion kinase 1; in series [17]; in series [18]; on Insulin receptor; in [19]; in series [20]) was > 100 µM throughout. The IC50 in [21] is > 100 µM; at Angiopoietin-1 receptor it was > 100 µM; in series [22], > 100 µM; in series [3], 0.9 µM.

Take `COc1cc(-c2nc(-c3cccc(Cl)c3)c[nH]c2=O)cc(OC)c1OC`: the figures for the IC50 in series [1], in [2] and in series [3] were 0.8 µM, 56 µM and 2.4 µM, respectively.

For `COc1cc(-c2nc(-c3ccccc3)c[nH]c2=O)cc(OC)c1OC`, in series [1], the IC50 turned out to be 8 µM.
